Entries after “also recorded” stand apart in the source; their conditions may differ.
Legend:
TNF-[…] = experiment: kavain analog screening assay, TNF inhibition in BMM infected with P. gingivalis; assay type: cell-based, murine
Protocol: (§1) To identify compounds with strong anti-inflammatory properties, kavain analogs were tested in a screening assay based on TNF-[…] inhibition in BMM infected with P. gingivalis (FIG. 1B). This screen identified Kava-205Cl (5,5-dimethyl-3-oxocyclohex-1-en-1-yl 4-chlorobenzoate) and its methylated analog Kava-205Me (5,5-dimethyl-3-oxocyclohex-1-en-1-yl 4-methylbenzoate) (FIG. 1B) as effective inhibitors of TNF-[…] secretion (z=−0.99 and z=−1.07 respectively).

TNF-α [1] = experiment: TNF-α secretion, dose-response in THP-1 infected with P. gingivalis; assay type: cell-based, human
Protocol: (§2) See Amar, Salomon et al., Identification of a Kavain Analog with Efficient Anti-inflammatory Effects, [Currently unpublished], 2019. (Incorporated by reference in its entirety, herein). Specifically, in an in vitro assay of anti-inflammatory effects, murine macrophages (BMM) and THP-1 cells were infected with P. gingivalis (MOI=20:1) and a panel of cytokines were measured.
as §1

[2] = system: IL-12, IFN-γ, MIP-1β, RANTES, IL-10, G-CSF and eotaxin; experiment: multiplex analysis of chemokines and cytokines from BMM exposed to P. gingivalis; assay type: cell-based, murine
Protocol: as §2
(§3) P. gingivalis is able to induce sustained recruitment of immune cells such a neutrophils and T-lymphocytes, whose presence is associated with excessive inflammation and tissue destruction at infectious sites. To evaluate the effect of Kava-205Me on the secretion of chemokines and cytokines from BMM exposed to P. gingivalis, a multiplex analysis was performed that compared P. gingivalis infected cells with and without treatment with Kava-205Me. […] Moreover, the gene expression of ACP5, an osteoclast specific gene, was evaluated in BMM infected with P. gingivalis with or without Kava-205Me treatment.

ACP5 = ACP5 gene expression in BMM infected with P. gingivalis; assay type: cell-based, murine
Protocol: as §3

[3] = system: infective arthritis (collagen-antibody + P. gingivalis); experiment: infective arthritis murine model, P. gingivalis and AB peritoneal injection (Kava-205Me); assay type: in vivo, mice
Protocol: as §2
To evaluate the systemic effect of Kava-205Me, an infective arthritis was induced in mice by the combined insults of P. gingivalis and AB peritoneal injection. After 10 days, significant paw swelling was observed, confirming the establishment of joint inflammation and a destructive process (FIG. 5). […] This anti-inflammatory effect was confirmed histologically (FIG. 5C).

TNF-α [4] = experiment: TNF-α secretion, dose-response in BMM infected with P. gingivalis; assay type: cell-based, murine
Protocol: as §2, §1

[5] = system: P. gingivalis-induced calvarial destruction; experiment: acute model of P. gingivalis-induced calvarial destruction; assay type: in vivo
Protocol: as §2
In an acute model of P. gingivalis infection, Kava-205Me was administered to evaluate its anti-inflammatory and pro-healing properties in vivo. In this calvarial model, injection of P. gingivalis induced formation of a cutaneous abscess characterized by dermal inflammation and bone destruction (FIG. 4).

[6] = system: TLR-2/4, MAPKs related signal elements, LITAF; experiment: signalling in bone-marrow derived macrophages infected with P. gingivalis; assay type: cell-based, murine; conditions: BMM infected with P. gingivalis
TNF-α [7] = conditions: Escherichia coli LPS-stimulated RAW cells; cited from earlier work
TNF-α [8] = experiment: serum TNF-α in mice injected with P. gingivalis-lipopolysaccharide; assay type: in vivo; conditions: mice injected with TLR 2/4 ligand P. gingivalis-LPS
[9] = system: P. gingivalis+ type II collagen antibody induced periodontitis; conditions: P. gingivalis induced PD in a collagen antibody primed mouse model; cited from earlier work
[10] = system: infective arthritis (P. gingivalis + ArthritoMab antibody cocktail); experiment: infective arthritis murine model triggered by P. gingivalis and primed with collagen antibody cocktail (Kava-241); assay type: in vivo, DBA1/BO male mice; conditions: CIA cocktail, treated concomitantly
Description: Kava-241 (I-BC-241) is a compound derived from kavain and has been synthesized as described previously. In this example, we evaluated the systemic and articular effects Kava-241 in an infective arthritis murine model triggered by P. gingivalis bacterial inoculation and primed with collagen antibody cocktail (CIA) to induce joint inflammation and tissular destruction. Arthritis was induced in twenty-eight six-week-old, pathogen-free DBA1/BO male mice by two consecutive injections of ArthritoMab (AB) Antibody cocktail (CIA-MAB-2C, MD Bioproducts, Oakdale, MN, USA), the first injection of 7 mg at baseline, followed by a second injection of 4 mg at day 5. For P. gingivalis injected groups, 3 intraperitoneal injections of 5.10^8 bacteria/100 μl were performed at days 2, 8 and 11. Mice were sacrificed after 17 days. Clinical inflammation score and radiological analysis of the paws were performed continuously while histological assessment was obtained at sacrifice. Forepaws were evaluated to score arthritis using a visual qualitative assessment scoring as follows: 0) no paw swelling, 1) mild swelling, 2) moderate swelling, 3) severe swelling (22). Inflammation was also evaluated with X-rays examination.

[11] = system: P. gingivalis+ type II collagen antibody induced periodontitis; experiment: collagen antibody primed oral gavage model of periodontitis; assay type: in vivo, mice
Protocol: The effect of Kava-241 on periodontal destruction in a collagen antibody primed oral gavage model of periodontitis was evaluated. In this example, experimental periodontitis was induced by oral gavage of P. gingivalis+ type II collagen antibody (AB) in mice during 15 days. Mice were treated with Kava-241 concomitantly or prior to P. gingivalis gavage and compared to untreated mice. Comprehensive histomorphometric analyses were performed. […] The Kava-241 effect was associated with a reduction in inflammatory cell counts within soft tissues and an increase in fibroblasts.

[12] = collagen-antibody (ArthriomAb)+P. gingivalis
[13] = P. gingivalis+ AG group, p<0.05

In the case of `CC1(C)CC(=O)C=C(OC(=O)c2ccc(Cl)cc2)C1` [Kava-205Cl, 5,5-dimethyl-3-oxocyclohex-1-en-1-yl 4-chlorobenzoate], the “TNF-[…] secretion, z” value (TNF-[…]) was −0.99.
For `Cc1ccc(C(=O)OC2=CC(=O)CC(C)(C)C2)cc1` [Kava-205Me, 5,5-dimethyl-3-oxocyclohex-1-en-1-yl 4-methylbenzoate], the “TNF-α secretion induced by P. gingivalis” value (TNF-α [1]; THP-1 cells, MOI=20:1, 10 to 200 μg/ml) was “significantly and dose-dependently reduced”, the “TNF-[…] secretion” value (TNF-α [1]; THP-1 infected with P. gingivalis, lowest tested dose 10 µg/ml) was “reduced significantly” and the “concentrations of chemokines and cytokines (IL-12, IFN-γ, MIP-1β, RANTES, IL-10, G-CSF and eotaxin)” value ([2]; BMM exposed to P. gingivalis, multiplex analysis) was “significantly reduced”. The “secretion of IL-12, eotaxin, RANTES, IL-10 and interferon-γ” value ([2]; BMM infected with P. gingivalis, p<0.05) was “reduced”, the ACP5 gene expression (ACP5) was “reduced” and the “number of TRAP positive multinucleated cells in contact with bone (osteoclastic activity of the infiltrate)” value ([3]; P. gingivalis-exposed animals) was “reduction”. The “inflammatory infiltrate in paw tissue sections” value ([3]; animals exposed to P. gingivalis, histology) was “significant reduction”, the joint destruction [3, 12] was “reduce efficiently” and the paw swelling [3, 12] was “reduce efficiently”. The “P. gingivalis-induced paw swelling” value ([3]; systemic administration, 32 day time point) was “significantly decreased”, the “TNF-[…] secretion” value (TNF-α [4]; BMM infected with P. gingivalis, lowest tested dose 10 µg/ml) was “reduced significantly” and the “TNF-α secretion induced by P. gingivalis” value (TNF-α [4]; BMM, MOI=20:1, 10 to 200 μg/ml) was “significantly and dose-dependently reduced”. The osteoclastic activity [5] was “reduced; also recorded: trend of reduction”, the rate of healing ([5]; P. gingivalis injection) was “significantly improved; also recorded: significantly increased” and the soft tissue inflammation ([5]; histological level) was “reduced significantly”. For the same compound, the “TNF-[…] secretion, z” value (TNF-[…]) was −1.07.
For `CC1(C)CC(=O)C=C(OC(=O)c2ccccc2)C1` [Kava-241, 5,5-dimethyl-3-oxocyclohex-1-en-1-yl benzoate], the LITAF [6] was “reduced”, the “MAPKs related signal elements” value [6] was “reduced” and the TLR-2/4 [6] was “reduced”. The TNF-α secretion (TNF-α [7]) was “reduced”, the TNF-α in serum (TNF-α [8]) was “decreased significantly” and the “inflammation including alveolar bone loss” value [9] was “prevented”. For the same compound, the clinical inflammatory score [10] was “reduced”, the “number of inflammatory cells within joint” value [10] was “decreased” and the “number of osteoclasts within joint” value [10] was “decreased”. The “reduced alveolar bone loss” value [11, 13] was 36%, the reduced epithelial down-growth [11, 13] was 72% and the “inflammatory cell counts within soft tissues” value ([11]; periodontitis model) was “reduction”. For the same compound, the fibroblasts ([11]; periodontitis model, soft tissues) was “increase”.
